According to PubChem BioAssay (NCI):
Where “and” joins values, the source holds several entries; their conditions need not be identical. Equal entries are not always repeated.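 A five-concentration, 48-hour dose response in 96-well plates underlies each endpoint, interpolated linearly between surrounding concentrations. GI50: concentration for 50% inhibition of growth. TGI: total growth inhibition.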

Tests used:
Assay in all cases: NCI tumour cell line growth inhibition, 48 h
[1] = test system: SNB-19 CNS
[2] = test system: OVCAR-8 ovarian
[3] = test system: CCRF-CEM leukemia
[4] = test system: HL-60(TB) leukemia
[5] = test system: NCI-H460 lung
[6] = test system: BT-549 breast
[7] = test system: RXF 393 renal
[8] = test system: NCI-H226 lung
[9] = test system: LXFL 529 NSCLC

O=c1c2c3c(sc2nc(N/N=C/c2ccc(Br)cc2)n1Cc1ccccc1)CCCC3
GI50 [1]: 41.8 µM
TGI [1]: > 100 µM
GI50 [2]: 47 µM
TGI [2]: > 100 µM
GI50 [3]: 7.23 µM
TGI [3]: > 100 µM
GI50 [4]: 9.26 µM
TGI [4]: > 100 µM
GI50 [5]: 10.2 µM
TGI [5]: > 100 µM
GI50 [6]: 8.02 µM
TGI [6]: > 100 µM
GI50 [7]: 5.98 µM
TGI [7]: > 100 µM
GI50 [8]: 37.4 µM
TGI [8]: > 100 µM

O=C(NO)c1ccc(Cn2c(=O)n(-c3ccccc3F)c(=O)c3ccccc32)cc1
GI50 [1]: 2.54 µM
TGI [1]: 18.2 µM
GI50 [2]: 1.05 µM
TGI [2]: 5.11 µM
GI50 [3]: 2.07 µM
TGI [3]: > 100 µM
GI50 [4]: 3.48 µM
TGI [4]: > 100 µM
GI50 [5]: 1.9 µM
TGI [5]: 10.4 µM
GI50 [6]: 1.9 µM
TGI [6]: 4.13 µM
GI50 [7]: 1.33 µM
TGI [7]: 2.9 µM
GI50 [8]: 1.43 µM
TGI [8]: 3.27 µM

CC(=O)Oc1cc2c(OC(C)=O)c(-c3c(C)cc4c(C(C)C)c(OC(C)=O)c(OC(C)=O)cc4c3OC(C)=O)c(C)cc2c(C(C)C)c1OC(C)=O
GI50 [1]: 15.3 µM and 8.77 µM and 19.6 µM
TGI [1]: > 31.7 µM and 25.2 µM and 47.5 µM
GI50 [2]: 6.44 µM and 5.89 µM and 11.8 µM
TGI [2]: 19.1 µM and 17.6 µM and > 57.6 µM
GI50 [3]: 0.707 µM and 5.41 µM and 5.98 µM
TGI [3]: 4.04 µM and 15.6 µM and 20.7 µM
GI50 [4]: 13.1 µM and 3.07 µM and 4.8 µM
TGI [4]: 33.2 µM and 9.99 µM and 16.2 µM
GI50 [5]: 6.16 µM and 6.95 µM and 11.6 µM
TGI [5]: 15.3 µM and 17.5 µM and 32.3 µM
GI50 [6]: 4.07 µM and 5.16 µM and 9.94 µM
TGI [6]: 9.05 µM and 10.2 µM and 26.6 µM
GI50 [7]: 14 µM and 16.3 µM and 4.05 µM
TGI [7]: 30.6 µM and 34.5 µM and 14.9 µM
GI50 [8]: 1.14 µM and 4.72 µM and 8.69 µM
TGI [8]: 2.58 µM and 11.1 µM and 20.9 µM

COc1cc(-c2ncn(/C=C\C(=O)OC(C)C)n2)cc(C(F)(F)F)c1
GI50 [1]: 0.142 µM and 0.253 µM
TGI [1]: 13.5 µM and 14.9 µM
GI50 [2]: 0.045 µM and 0.031 µM
TGI [2]: 11.4 µM and 1.41 µM
GI50 [3]: 0.0362 µM and 0.0446 µM
TGI [3]: 36.1 µM and 12.5 µM
GI50 [4]: 0.0515 µM and 0.051 µM
TGI [4]: 4.58 µM and 4.07 µM
GI50 [5]: 0.0293 µM and 0.0327 µM
TGI [5]: 11.1 µM and 1.4 µM
GI50 [6]: 0.0351 µM and 0.0343 µM
TGI [6]: 1.03 µM and 1.69 µM
GI50 [7]: < 0.0139 µM and 0.0146 µM
TGI [7]: 0.0824 µM and 0.0725 µM
GI50 [8]: 0.0164 µM and 0.031 µM
TGI [8]: 0.64 µM and 1.66 µM

COc1ccc2c(c1OC)OCC(CN(C)C)C2=O (centres undefined)
TGI [1]: > 100 µM
TGI [2]: 50.2 µM
TGI [3]: 8.54 µM
TGI [4]: 7.14 µM
TGI [5]: > 66.6 µM
TGI [6]: 38.7 µM
TGI [7]: 30.5 µM
TGI [8]: > 67.4 µM

O=S(=O)(Nc1cc(Cl)ccc1Cl)c1ccc(-c2cnc(C3CC3)o2)cc1
GI50 [1]: 1.51 µM
TGI [1]: > 100 µM
GI50 [2]: 3.95 µM
TGI [2]: > 100 µM
GI50 [3]: 0.592 µM
TGI [3]: > 100 µM
GI50 [4]: 0.468 µM
TGI [4]: 16.4 µM
GI50 [5]: 0.769 µM
TGI [5]: 17.4 µM
GI50 [6]: 0.449 µM
TGI [6]: 14.9 µM
GI50 [7]: 1.06 µM
TGI [7]: 6.65 µM
GI50 [8]: 4.55 µM
TGI [8]: 38.6 µM

COc1ccc(CNc2nc3cc(N)cc(N)c3nc2-c2ccccc2)cc1
GI50 [1]: 41.5 µM
TGI [1]: > 100 µM
GI50 [2]: 14.8 µM
TGI [2]: 39.5 µM
GI50 [3]: 3.36 µM
TGI [3]: 65.3 µM
GI50 [4]: 13.6 µM
TGI [4]: 51.3 µM
GI50 [5]: 20.5 µM
TGI [5]: 48.4 µM
GI50 [6]: 6.52 µM
TGI [6]: 30.7 µM
GI50 [7]: 5.32 µM
TGI [7]: 18.4 µM
GI50 [8]: 20.2 µM
TGI [8]: 70.5 µM

CCOc1ccccc1NC(=O)CCc1n[nH]c(=S)o1
TGI [1]: > 100 µM
TGI [3]: > 100 µM
TGI [4]: > 100 µM
TGI [8]: > 100 µM
TGI [9]: > 100 µM
